From PMC7824769, “Identification of Small Molecules Blocking the Pseudomonas aeruginosa Type III Secretion System Protein PcrV” (Biomolecules, 2021)

Biological target: PcrV (Pseudomonas aeruginosa, UniProt G3XD49)
Experiment: 1H NMR relaxation-edited binding experiment
Conditions: compound 100 µM, PcrV 10 µM
Description: A solution containing 100 µM of the small molecule was prepared from 20 mM stock solution of the tested compound in DMSO and diluted in PBS (pH 7.4) containing trimethylsilyl propanoic acid (TMSP) as an internal standard. This solution was then split into halves and used for preparation of the test and the reference samples as follows: the test sample was prepared by adding 24 µL of 0.211 mM PcrV protein stock solution, resulting in a final protein concentration of 10 µM, whereas the reference sample was prepared by adding the corresponding volume of PBS buffer only before being transferred to 5-mm NMR tubes. The relaxation-edited experiments shown in Figure 3D were recorded on Bruker 600 MHz, and data were acquired at 298 K. Data from 256 scans were accumulated, and a Carr-Purcell-Meiboom-Gill (cpmg) spin-lock of 200 ms was used. Excitation sculpture was applied for water suppression.
To confirm the binding data obtained from the SPR, a secondary qualitative label-free binding experiment based on ^1H-NMR was performed.

Sequence of PcrV (G3XD49 entry or part of it): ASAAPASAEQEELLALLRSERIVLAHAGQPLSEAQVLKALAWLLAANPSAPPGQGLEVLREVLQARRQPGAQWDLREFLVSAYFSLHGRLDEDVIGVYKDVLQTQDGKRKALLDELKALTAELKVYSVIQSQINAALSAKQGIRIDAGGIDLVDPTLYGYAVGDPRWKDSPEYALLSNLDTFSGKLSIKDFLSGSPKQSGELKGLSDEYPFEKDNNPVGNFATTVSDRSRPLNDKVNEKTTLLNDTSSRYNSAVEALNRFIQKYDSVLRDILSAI

## Cc1c(Br)ccc(OCCCC(=O)O)c1C [Compound H1]
  1H NMR binding to PcrV (qualitative): signal reduction
